Test results from paper PMC6723059, “A Collection of Bioactive Nitrogen-Containing Molecules from the Marine Sponge Acanthostrongylophora ingens” (Marine Drugs, 2019).

Biological target: T1, cyclin-dependent kinase 2 (CDK2/cyclin A) (Homo sapiens, UniProt P24941)
T1 construct: with cyclin A
Assay: in vitro protein kinase activity assay, […] ATP
Assay type: biochemical

O=C1N[C@@H](Cc2ccccc2)C(=O)N2CCC[C@H]12 [compound 6, cyclo(D-Pro-L-Phe)]
IC50: 1000 nM
